Measurements from patent US9333257B2, “FGFR1 antibodies and treatment of cancer” (Agency for Science, Technology and Research, priority 2011, dated 2016).

What was measured:
Format in all cases: cell-based, human
MG63 cells [1] = test: Cell growth, viable cell count by GUAVA Viacount; conditions: 48 hours; for repression of cell growth: 50 μM
Method: The cells were seeded in triplicates at 20,000 cells/cm^2 in 24-well plates, except MDA-MB468 which was plated at 100,000 cells/cm^2. […] 48 hours after treatment, the viable cell numbers were counted using the GUAVA Viacount Program and used to plot the graph (FIG. 6). The ‘starting’ cell numbers which were seeded for the assay were also included. hFOB is the normal cell control for osteosarcoma cells, while MCF10A is the normal cell control for breast cancer cells.
We tested the effectiveness of these reagents to block the growth of MG63 using GUAVA Viacount system.
The effect of these antibodies on the growth of MG63 cells were examined by GUAVA EasyCyte flow cytometry system.
Rabbit IgG and mouse IgG were the vehicle control for IMB-R1 and IMB-R1 mAbs, respectively. The viable cells were counted by GUAVA Viacount system. The statistics was done by Student's t test.

Saos-2 = test: Cell viability via GUAVA, fold change vs cells plated; conditions: two day treatment
Method: (§1) Old media was first removed and 3 ml of fresh media added. IMBR1 and rabbit IgG were added to achieve desired dosage. PD166866 (Sigma-Aldrich, USA) and SU5402 (Merck, Germany) were dissolved in dimethyl sulfoxide (DMSO; Sigma-Aldrich, USA) and added to master mix of media to achieve desired concentration. Additional DMSO was added such that total volume of chemicals added was constant.
(§2) Cells were grown in 24-well plate with 500 μl of media at a seeding density of 20,000 cells/cm^2, except for MDA-MB-468 which were seeded at a density of 100,000 cells/cm^2. Each well of cells were then collected via trypsinization with 200 μl of trypsin-EDTA (Invitrogen, USA) and neutralized with 200 μl of media. 1 μl of GUAVA Viacount Flex dye (Guava Technologies, USA) was added to each well. Quantification of viable cells were performed as per manufacturer's instructions.
(§3) To determine the effect of inhibiting FGFR1 signaling on cell viability in osteosarcoma cells, Saos-2 and hOS were treated with varying concentrations of FGFR tyrosine kinase inhibitors PD166866 (Panek et al., 1998) and SU5402 (Mohammadi et al, 1997). The control groups of respective cell lines were treated with equivalent volume of DMSO, as DMSO is the vehicle for both chemical inhibitors. Cell viability was measured via GUAVA and fold change calculated to compare changes in number of cells after two day treatment and number of cells plated. A fold change greater than one indicated an increase in number of cells while a fold change less than one indicated a decrease in number of cells compared to number of cells plated.
To determine the effect of IMBR1 on cell viability, GUAVA was performed after two day treatment with varying amount of IMBR1 or rabbit IgG as control. Rabbit IgG was used as control as IMBR1 is raised in rabbit. Half maximal inhibitory constant (IC50) was then determined.

hOS = test: as above; conditions: two day treatment
Method: as §1, §2, §3

MG63 cells [2] = test: Annexin V-FITC / PI staining apoptosis assay
Method: Thus we treated MG63 with 1:250 dilution of IMB-R1 or equal volume of rabbit IgG for 24 hours and then stained the cells with Annexin V-FITC and Propidium Iodide (PI) (BD Biosciences). Annexin V binds to phosphatidylserine which is only present on the outer layer of cell membrane at the early stage of apoptosis. Therefore positive staining of Annexin V indicates early apoptosis. PI is unable to penetrate the intact cell membrane. Only when the membrane breaks down at the late stage of apoptosis, PI can enter and stain the cell. After staining, the cell population was analyzed by BD FACS Array system. The viable cells were negative of either Annexin V-FITC or PI staining, which was shown in Q3; the early apoptotic cells were positive of Annexin V-FITC but negative of PI staining, which was shown in Q4; the late apoptotic or dead cells were positive of both staining, which was shown in Q2. The percentage of positive cells in each population was plotted in the graphs.
We next examined whether FGF2 regulated cell apoptosis and IMB-R1 blocked its effect. MG63 cells were treated with IMB-R1 (1:250) 1 hour before FGF2 (20 ng/ml). 24 hours later, cells were harvested and stained with Annexin-PI. Thereafter, cells were analysed by flow cytometry (FIG. 11B). […]
Cells were treated with 25 μM U0126 for 24 hours before the apoptosis of the cells was analysed by Annexin-PI staining.

MG63 cells [3] = test: FGF2 stimulated MG63 cell growth (GUAVA)
Method: MG63 cells were treated with 20 ng/ml FGF2, IMB-R1 (1:250 dilution), or pretreated with IMB-R11 hour before addition of FGF2. Cells without the above treatments were the control. After 2 days, the viable cell numbers were counted using GUAVA system as mentioned before.
Cells were first treated with increasing doses of U0126 for 48 hours. The viable cell numbers were then analysed by GUAVA system. Next, cells were treated with 20 ng/ml FGF2 in the presence or absence of the optimal dose of U0126 determined from the first assay, before the cell counting was performed.

Caspase 3 = Caspase 3 activity assay (Biovision kit) in MG63; conditions: 24 hours
Method: We further examined the effect of IMB-R1 on Caspase 3 activity using an assay kit from Biovision. Caspase 3 is activated at the early stage of apoptosis, so it is used as a common marker of apoptosis. Staurosporine, known as the inducer of caspase 3 activity, was used in this assay as the positive control. We first treated MG63 cells with increasing dose of staurosporine for 24 hours to determine the working dose.
We next examined whether FGF2 regulated cell apoptosis and IMB-R1 blocked its effect. MG63 cells were treated with IMB-R1 (1:250) 1 hour before FGF2 (20 ng/ml). 24 hours later, cells were harvested and stained with Annexin-PI. Thereafter, cells were analysed by flow cytometry (FIG. 11B). The percentage of positive cells in each population was plotted in the graphs (FIG. 11C). We further examined the effect of IMB-R1 and FGF2 on Caspase 3 activity using the assay kit from Biovision. Caspase 3 is activated at the early stage of apoptosis, so it is used as a common marker of apoptosis. The dose of reagents and the time point chosen were same to those in Annexin-PI staining assay.

Compound	repression of cell growth (MG63 cells [1]) [%]	fold change of cell number vs cells plated (Saos-2; 10 μM)	fold change of cell number vs cells plated (Saos-2; 100 μM)	fold change of cell number vs cells plated (hOS; 10 μM)	fold change of cell number vs cells plated (hOS; 100 μM)	other results
COc1cc(OC)cc(-c2cc3cnc(N)nc3nc2NC(=O)NC(C)(C)C)c1 [PD166866]	~50	1.7	0.4	4.2	0.7	–
CCN(CC)CCCCNc1ncc2cc(-c3cc(OC)cc(OC)c3)c(NC(=O)NC(C)(C)C)nc2n1 [PD173074]	–	–	–	–	–	IC50 (MG63 cells [1]; Homo sapiens, MG-63, read-out: concentration able to induce 50% cell growth inhibition): 10 to 25 µM
Cc1c[nH]c(/C=C2\C(=O)Nc3ccccc32)c1CCC(=O)O [SU5402]	~50	2.14	0.9	5.2	0.6	–
N#CC(=C(/N)Sc1ccccc1N)/C(C#N)=C(\N)Sc1ccccc1N [U0126]	–	–	–	–	–	cell number relative to cells without treatment (MG63 cells [1]; 25 μM): ~50%; cell apoptosis (MG63 cells [2]; 25 μM, 24 hours (control 7.49%)): ~100%; viability at 25 µM (MG63 cells [2]; Homo sapiens, MG-63, 24 h, read-out: viable cells): < 1%; FGF2 stimulated cell growth (MG63 cells [3]; 25 μM U0126, 20 ng/ml FGF2): completely suppressed
CN[C@@H]1C[C@H]2O[C@@](C)([C@@H]1OC)n1c3ccccc3c3c4c(c5c6ccccc6n2c5c31)C(=O)NC4 [staurosporine]	–	–	–	–	–	Caspase 3 activation (Caspase 3; 15 nM): sufficient to activate Caspase 3
FGF2: recombinant human FGF2 (R&D Systems), FGF ligand that activates FGFR1 signalling	–	–	–	–	–	caspase 3 activity (Caspase 3; FGF2 20 ng/ml alone): slightly decreased; increase of cell proliferation (MG63 cells [3]; 20 ng/ml FGF2, 2 days): 1.9 folds
